{
  "source": "patent US20080255128A1",
  "about": "“PHTHALAZINONE DERIVATIVES” (priority 2007, published 2008)",
  "experiment": "Stereochemical stability of separated isomers on standing in solution",
  "assay_type": "physicochemical",
  "conditions": "after separation by chiral HPLC",
  "experimental": "has a chiral centre where indicated. This racemic mixture was separated using chiral preparative HPLC.\nThis separation was carried out on a Rainin prep machine (200 ml heads) using a Merck 100 mm 20 μm Chiralpak AD column. The Eluent was a mixture of i-hexane, ethanol and methanol (70:15:15), which was flowed at a rate of 190 ml/min. The analaysis was carried out with a wavelength of 215 nm. Complete separation of the two isomers was achieved using a sample concentration of 12.5 mg/ml, an injection volumn of 40 ml and a run time of 3 hours.",
  "note": "Entries after “also recorded” stand apart in the source; their conditions may differ.",
  "data": [
    {"smiles": "CC1C(=O)N(c2cc(Cc3n[nH]c(=O)c4ccccc34)ccc2F)C(=O)N1CCN1CCCC1", "note": "(racemic) [Compound 9, 3-(2-fluoro-5-((4-oxo-3,4-dihydrophthalazin-1-yl)methyl)phenyl)-5-methyl-1-(2-(pyrrolidin-1-yl)ethyl)imidazolidine-2,4-dione]", "values": [
      {"measurement": "stereochemical stability in solution", "value": "epimerise on standing in solution; also recorded: racemises"}
    ]}
  ]
}
